Values belong to the molecule of their own block, whether it stands above or below them. The source made the active and inactive calls. The calls are words filed in the database; no cut-off is given here.
Tests used:
MGC-803 [1] = experiment: Antiproliferative activity against human MGC803 cells incubated for 48 hrs and measured after 4 hrs by MTT assay; type: functional, cell-based
SGC-7901 [2] = experiment: Antiproliferative activity against human SGC7901 cells incubated for 48 hrs and measured after 4 hrs by MTT assay; type: functional, cell-based
A549 [3] = experiment: Antiproliferative activity against human A549 cells incubated for 48 hrs and measured after 4 hrs by MTT assay; type: functional, cell-based
MCF7 [4] = experiment: Antiproliferative activity against human MCF7 cells incubated for 48 hrs and measured after 4 hrs by MTT assay; type: functional, cell-based
PC-3 [5] = experiment: Antiproliferative activity against human PC3 cells incubated for 48 hrs and measured after 4 hrs by MTT assay; type: functional, cell-based
[6] = Cytotoxicity against human IOSE-144 cells incubated for 48 hrs and measured after 4 hrs by MTT assay; type: cell-based
MGC-803 [7] = experiment: Potency index, ratio of IC50 for AD-2 to IC50 for test compound for antiproliferative activity against human MGC803 incubated for 48 hrs and measured after 4 hrs by MTT assay; type: functional
SGC-7901 [8] = experiment: Potency index, ratio of IC50 for AD-2 to IC50 for test compound for antiproliferative activity against human SGC7901 incubated for 48 hrs and measured after 4 hrs by MTT assay; type: functional
A549 [9] = experiment: Potency index, ratio of IC50 for AD-2 to IC50 for test compound for antiproliferative activity against human A549 incubated for 48 hrs and measured after 4 hrs by MTT assay; type: functional
MCF7 [10] = experiment: Potency index, ratio of IC50 for AD-2 to IC50 for test compound for antiproliferative activity against human MCF7 incubated for 48 hrs and measured after 4 hrs by MTT assay; type: functional
PC-3 [11] = experiment: Potency index, ratio of IC50 for AD-2 to IC50 for test compound for antiproliferative activity against human PC3 incubated for 48 hrs and measured after 4 hrs by MTT assay; type: functional
A549 [12] = experiment: Cell cycle arrest in human A549 cells assessed as decrease in accumulation of cells at G0/G1 phase at 5 to 10 uM after 24 hrs by propidium iodide staining-based flow cytometric analysis; type: functional
A549 [13] = experiment: Cell cycle arrest in human A549 cells assessed as decrease in accumulation of cells at G2/M phase at 5 to 10 uM after 24 hrs by propidium iodide staining-based flow cytometric analysis; type: functional
A549 [14] = experiment: Cell cycle arrest in human A549 cells assessed as increase in accumulation of cells at S phase at 5 to 10 uM after 24 hrs by propidium iodide staining-based flow cytometric analysis; type: functional
A549 [15] = experiment: Cell cycle arrest in human A549 cells assessed as increase in accumulation of cells at sub G0/G1 phase after 24 hrs by propidium iodide staining-based flow cytometric analysis; type: functional
A549 [16] = experiment: Cell cycle arrest in human A549 cells assessed as increase in expression of p21 at 5 to 20 uM measured after 12 hrs by Western blot analysis; type: functional, cell-based
A549 [17] = experiment: Cell cycle arrest in human A549 cells assessed as increase in expression of p53 at 5 to 20 uM measured after 12 hrs by Western blot analysis; type: functional, cell-based
A549 [18] = experiment: Induction of apoptosis in human A549 cells assessed as cell shrinkage at 10 to 20 uM by microscopic analysis; type: functional, cell-based
A549 [19] = experiment: Induction of apoptosis in human A549 cells assessed as appearance of apoptotic bodies at 10 to 20 uM by microscopic analysis; type: functional, cell-based
A549 [20] = experiment: Induction of apoptosis in human A549 cells assessed as appearance of fragmented apoptotic bodies at 10 to 20 uM measured after 12 hrs by DAPI staining based fluorescence microscopic analysis; type: functional, cell-based
A549 [21] = experiment: Induction of apoptosis in human A549 cells assessed as nuclear condensation at 10 to 20 uM measured after 12 hrs by DAPI staining based fluorescence microscopic analysis; type: functional, cell-based
A549 [22] = experiment: Induction of apoptosis in human A549 cells assessed as nuclear shrinkage at 10 to 20 uM measured after 12 hrs by DAPI staining based fluorescence microscopic analysis; type: functional, cell-based
A549 [23] = experiment: Induction of apoptosis in human A549 cells assessed as early apoptotic cells at 10 uM after 12 hrs by Annexin V-FITC/propidium iodide staining-based flow cytometric analysis (reference value: 0.9%); type: functional
A549 [24] = experiment: Induction of apoptosis in human A549 cells assessed as early apoptotic cells at 15 uM after 12 hrs by Annexin V-FITC/propidium iodide staining-based flow cytometric analysis (reference value: 0.9%); type: functional
A549 [25] = experiment: Induction of ROS generation in human A549 cells assessed as intracellular ROS level at 10 to 15 uM after 30 mins in presence of NAC by DCFH-DA staining-based flow cytometric analysis; type: functional, cell-based
A549 [26] = experiment: Induction of ROS generation in human A549 cells assessed as intracellular ROS level at 10 to 15 uM after 30 mins by DCFH-DA staining-based flow cytometric analysis; type: functional, cell-based
A549 [27] = experiment: Induction of apoptosis in human A549 cells at 10 to 15 uM after 12 hrs by flow cytometric analysis; type: functional, cell-based
A549 [28] = experiment: Induction of apoptosis in human A549 cells at 10 to 15 uM in presence of NAC after 12 hrs by flow cytometric analysis; type: functional, cell-based
A549 [29] = experiment: Suppression of mitochondrial membrane potential in human A549 cells assessed as increase in green fluorescence at 10 uM after 12 hrs by JC-1 staining based flow cytometry (reference value: 0.4%); type: functional
A549 [30] = experiment: Suppression of mitochondrial membrane potential in human A549 cells assessed as increase in green fluorescence at 15 uM after 12 hrs by JC-1 staining based flow cytometry (reference value: 0.4%); type: functional
A549 [31] = experiment: Induction of apoptosis in human A549 cells assessed as decrease in Bcl2 protein expression level at 5 to 20 uM incubated for 12 hrs by Western blot analysis; type: functional, cell-based
A549 [32] = experiment: Induction of apoptosis in human A549 cells assessed as upregulation of Bax protein expression at 5 to 20 uM incubated for 12 hrs by Western blot analysis; type: functional, cell-based
A549 [33] = experiment: Induction of apoptosis in human A549 cells assessed as upregulation of Cyt c protein expression at 5 to 20 uM incubated for 12 hrs by Western blot analysis; type: functional, cell-based
A549 [34] = experiment: Induction of apoptosis in human A549 cells assessed as decrease in PARP protein expression level at 5 to 20 uM incubated for 12 hrs by Western blot analysis; type: functional, cell-based
A549 [35] = experiment: Induction of apoptosis in human A549 cells assessed as decrease in caspase-3 protein expression level at 5 to 20 uM incubated for 12 hrs by Western blot analysis; type: functional, cell-based
A549 [36] = experiment: Induction of apoptosis in human A549 cells assessed as decrease in caspase-9 protein expression level at 5 to 20 uM incubated for 12 hrs by Western blot analysis; type: functional, cell-based
A549 [37] = experiment: Induction of apoptosis in human A549 cells assessed as increase in cleaved PARP protein expression level at 5 to 20 uM incubated for 12 hrs by Western blot analysis; type: functional, cell-based
A549 [38] = experiment: Induction of apoptosis in human A549 cells assessed as increase in cleaved caspase-3 protein expression level at 5 to 20 uM incubated for 12 hrs by Western blot analysis; type: functional, cell-based
A549 [39] = experiment: Induction of apoptosis in human A549 cells assessed as increase in cleaved caspase-9 protein expression level at 5 to 20 uM incubated for 12 hrs by Western blot analysis; type: functional, cell-based
A549 [40] = experiment: Induction of apoptosis in human A549 cells measured after 12 hrs by Annexin V-FITC/propidium iodide staining-based flow cytometric analysis; type: functional, cell-based

SMILES: CC(C)(O)CCC[C@@](C)(O)[C@H]1CC[C@]2(C)[C@@H]1[C@H](O)C[C@@H]1[C@@]3(C)C/C(=C\c4ccc(F)cc4F)C(=O)C(C)(C)[C@@H]3CC[C@]12C
- IC50 (MGC-803 [1]): 9.32 µM
- IC50 (SGC-7901 [2]): 11.2 µM
- IC50 (A549 [3]): 12.6 µM
- IC50 (MCF7 [4]): 8.32 µM
- IC50 (PC-3 [5]): 13.1 µM
- IC50 [6]: > 100 µM
- Ratio IC50 (MGC-803 [7]): 3 - 8
- Ratio IC50 (SGC-7901 [8]): 3 - 8
- Ratio IC50 (A549 [9]): 3 - 8
- Ratio IC50 (MCF7 [10]): 3 - 8
- Ratio IC50 (PC-3 [11]): 3 - 8

SMILES: CC(C)(O)CCC[C@@](C)(O)[C@H]1CC[C@]2(C)[C@@H]1[C@H](O)C[C@@H]1[C@@]3(C)CC[C@H](OC(=O)C4CCNCC4)C(C)(C)[C@@H]3CC[C@]12C
- IC50 (MGC-803 [1]): 6.51 µM
- IC50 (SGC-7901 [2]): 7.11 µM
- IC50 (A549 [3]): 1.07 µM
- IC50 (MCF7 [4]): 1.27 µM
- IC50 (PC-3 [5]): 5.44 µM
- IC50 [6]: > 100 µM
- Ratio IC50 (MGC-803 [7]): 5 - 28
- Activity (A549 [12]): Active
- Activity (A549 [13]): Active
- Activity (A549 [14]): Active
- Activity (A549 [15]): Active
- Activity (A549 [16]): Active
- Activity (A549 [17]): Active
- Activity (A549 [18]): Active
- Activity (A549 [19]): Active
- Activity (A549 [20]): Active
- Activity (A549 [21]): Active
- Activity (A549 [22]): Active
- Activity (A549 [23]): 27%
- Activity (A549 [24]): 50%
- Activity (A549 [25]): inactive
- Activity (A549 [26]): Active
- Activity (A549 [27]): Active
- Activity (A549 [28]): inactive
- Activity (A549 [29]): 7.5%
- Activity (A549 [30]): 27.6%
- Activity (A549 [31]): Active
- Activity (A549 [32]): Active
- Activity (A549 [33]): Active
- Activity (A549 [34]): Active
- Activity (A549 [35]): Active
- Activity (A549 [36]): Active
- Activity (A549 [37]): Active
- Activity (A549 [38]): Active
- Activity (A549 [39]): Active
- Ratio IC50 (SGC-7901 [8]): 5 - 28
- Ratio IC50 (A549 [9]): 5 - 28
- Ratio IC50 (MCF7 [10]): 5 - 28
- Ratio IC50 (PC-3 [11]): 5 - 28
- Activity (A549 [40]): Dose-dependent effect

SMILES: CC(C)(O)CCC[C@@](C)(O)[C@H]1CC[C@]2(C)[C@@H]1[C@H](O)C[C@@H]1[C@@]3(C)CC[C@H](NC(=O)C4CCCNC4)C(C)(C)[C@@H]3CC[C@]12C (stereo not given in full)
- IC50 (MGC-803 [1]): 20.6 µM
- IC50 (SGC-7901 [2]): 29.9 µM
- IC50 (A549 [3]): 11.6 µM
- IC50 (MCF7 [4]): 18.5 µM
- IC50 (PC-3 [5]): 30.8 µM
- IC50 [6]: > 100 µM

SMILES: CC(C)(O)CCC[C@@](C)(O)[C@H]1CC[C@]2(C)[C@@H]1[C@H](O)C[C@@H]1[C@@]3(C)C/C(=C\c4ccc(C(F)(F)F)cc4)[C@H](O)C(C)(C)[C@@H]3CC[C@]12C
- IC50 (MGC-803 [1]): > 100 µM
- IC50 (SGC-7901 [2]): > 100 µM
- IC50 (A549 [3]): 45.6 µM
- IC50 (MCF7 [4]): > 100 µM
- IC50 (PC-3 [5]): > 100 µM
- IC50 [6]: > 100 µM

More lines, main results first:

- IC50 (MGC-803 [1]): > 100 µM
- IC50 (SGC-7901 [2]): > 100 µM
- IC50 (A549 [3]): 44.9 µM
- IC50 (MCF7 [4]): > 100 µM
- IC50 (PC-3 [5]): 75.2 µM
SMILES: CC(C)(O)CCC[C@@](C)(O)[C@H]1CC[C@]2(C)[C@@H]1[C@H](O)C[C@@H]1[C@@]3(C)C/C(=C\c4cccc([N+](=O)[O-])c4)[C@H](O)C(C)(C)[C@@H]3CC[C@]12C
- IC50 [6]: > 100 µM

- IC50 (MGC-803 [1]): 12.5 µM
- IC50 (SGC-7901 [2]): 12.1 µM
- IC50 (A549 [3]): 5.44 µM
- IC50 (MCF7 [4]): 14 µM
- IC50 (PC-3 [5]): 13.1 µM
SMILES: CC(C)(O)CCC[C@@](C)(O)[C@H]1CC[C@]2(C)[C@@H]1[C@H](O)C[C@@H]1[C@@]3(C)CC[C@H](OC(=O)C4CCCNC4)C(C)(C)[C@@H]3CC[C@]12C (stereo not given in full)
- IC50 [6]: > 100 µM

Reference: ChEMBL document CHEMBL4376871, “Synthesis and anti-cancer activity studies of dammarane-type triterpenoid derivatives” (Eur J Med Chem, 2020)
